Experiments:
E. coli = experiment: Preservative challenge test (European Pharmacopoeia 7.0, 5.1.3) in anionic emulsion with Dracorin CE; format: cell-based, Escherichia coli; conditions: pH 5.5
Procedure: (§1) The invention will be further described in the following on the basis of examples. The examples serve to illustrate the invention, without thereby restricting the scope of protection of the claims. For examples, 1 to 11 preservative challenge tests according to European Pharmacopoeia 7.0 (5.1.3. Efficacy of antimicrobial preservation) were used. For example 12, activities were determined by measuring minimum inhibitory concentrations (MIC values) according to DIN 58940. All numerical information relates to weight, unless stated otherwise.
(§2) Activity of Benzoic acid-3-hydroxypropylester (BAHP) against the microorganisms E. coli, P. aeruginosa, S. aureus, C. albicans and spores of A. brasiliensis was evaluated in an anionic emulsion with Dracorin CE as emulsifier. The pH value of the emulsion was 5.5.
(§3) Activity of Furoic acid-3-hydroxypropylester (FAHP) against the microorganisms E. coli, P. aeruginosa, S. aureus, C. albicans and spores of A. brasiliensis was evaluated in an anionic emulsion with Dracorin CE as emulsifier. The pH value of the emulsion was 5.5.
(§4) Activity of Anisic acid-3-hydroxypropylester (AAHP) against the microorganisms E. coli, P. aeruginosa, S. aureus, C. albicans and spores of A. brasiliensis was evaluated in an anionic emulsion with Dracorin CE as emulsifier. The pH value of the emulsion was 5.5.
(§5) Synergistic effects between Benzoic acid-3-hydroxypropylester (BAHP) and 1,2-Octanediol were determined. Activity of BAHP, 1,2-Octanediol and the combination of BAHP and 1,2-Octanediol against the microorganisms E. coli, P. aeruginosa, S. aureus, C. albicans and spores of A. brasiliensis was evaluated in an anionic emulsion with Dracorin CE as emulsifier. The pH value of the emulsion was 5.5.

Candida albicans = experiment: Minimum inhibitory concentration (MIC) according to DIN 58940; format: cell-based; conditions: DIN 58940
Procedure: as §1
(§6) The activity of Benzoic acid-3-hydroxypropylester (BAHP), Furoic acid-3-hydroxypropylester (FAHP) and Anisic acid-3-hydroxypropylester (AAHP), Salicylic acid hydroxyethyl ester (SAHE) and Salicylic acid hydroxypropyl ester (SAHP) was determined against the microorganisms Staphylococcus aureus, Candida albicans, Aspergillus brasiliensis, Pseudomonas aeruginosa and Escherichia coli. The activity of N-Methylsalicylamid (MSA), Furoic acid methylester (FAME) and Salicylamide (SA) was determined against the microorganism Aspergillus brasiliensis.

Pseudomonas aeruginosa = experiment: as above; format: cell-based
Procedure: as §1, §6

Staphylococcus aureus = experiment: as above; format: cell-based
Procedure: as §1, §6

Aspergillus brasiliensis = experiment: as above; format: cell-based
Procedure: as §1, §6

Escherichia coli = experiment: as above; format: cell-based
Procedure: as §1, §6

S. aureus = experiment: Preservative challenge test (European Pharmacopoeia 7.0, 5.1.3) in anionic emulsion with Dracorin CE; format: cell-based, Staphylococcus aureus; conditions: pH 5.5
Procedure: as §1, §2, §3, §4, §5

C. albicans = experiment: as above; format: cell-based, Candida albicans; conditions: pH 5.5
Procedure: as §1, §2, §3, §4, §5

P. aeruginosa = experiment: as above; format: cell-based, Pseudomonas aeruginosa; conditions: pH 5.5
Procedure: as §1, §2, §3, §4, §5

[1] = tested on: spores of A. brasiliensis; experiment: as above; format: cell-based, Aspergillus brasiliensis
Procedure: as §1, §2, §3, §4
Activity of N-Methylsalicylamid (MSA) against the microorganism A. brasiliensis was evaluated in an anionic emulsion with Dracorin CE as emulsifier. The pH value of the emulsion was 5.5.
Activity of Furoic acid methylester (FAME) against the microorganism A. brasiliensis was evaluated in an anionic emulsion with Dracorin CE as emulsifier. The pH value of the emulsion was 5.5.
Activity of Salicylamide (SA) against the microorganism A. brasiliensis was evaluated in an anionic emulsion with Dracorin CE as emulsifier. The pH value of the emulsion was 5.5.
Activity of Salicylic acid hydroxyethyl ester (SAHE) against the microorganism A. brasiliensis was evaluated in an anionic emulsion with Dracorin CE as emulsifier. The pH value of the emulsion was 5.5.
Activity of Salicylic acid hydroxypropyl ester (SAHP) against the microorganism A. brasiliensis was evaluated in an anionic emulsion with Dracorin CE as emulsifier. The pH value of the emulsion was 5.5.
Activity of Benzoic acid-3-hydroxypropylester (BAHP) against spores of A. brasiliensis was evaluated in an anionic emulsion with Dracorin CE as emulsifier. The pH value of the emulsion was 7.
Activity of Anisic acid-3-hydroxypropylester (AAHP) against spores of A. brasiliensis was evaluated in an anionic emulsion with Dracorin CE as emulsifier. The pH value of the emulsion was 7. […]

[2] = day 2, 1.0% in anionic emulsion
[3] = day 7, 1.0% in anionic emulsion
[4] = day 14, 1.0% in anionic emulsion
[5] = day 28, 1.0% in anionic emulsion

SMILES: COc1ccc(C(=O)OCCCO)cc1 [AAHP, Anisic acid-3-hydroxypropylester]
- Colony counts (cfu/g formulation) (E. coli; [2]): <10 cfu/g formulation
- Colony counts (cfu/g formulation) (E. coli; [3]): <10 cfu/g formulation
- Colony counts (cfu/g formulation) (E. coli; [4]): <10 cfu/g formulation
- Colony counts (cfu/g formulation) (E. coli; [5]): <10 cfu/g formulation
- MIC values (ppm) Candida aibicans (Candida albicans): 2500 ppm
- MIC values (ppm) Pseudomonas aeruginosa (Pseudomonas aeruginosa): >5000 ppm
- MIC values (ppm) Staphylococcus aureus (Staphylococcus aureus): 5000 ppm
- MIC values (ppm) Aspergillus brasiliensis (Aspergillus brasiliensis): 1000 ppm
- MIC values (ppm) Escherichia coli (Escherichia coli): 2500 ppm
- Colony counts (cfu/g formulation) (S. aureus; [2]): <10 cfu/g formulation
- Colony counts (cfu/g formulation) (S. aureus; [3]): <10 cfu/g formulation
- Colony counts (cfu/g formulation) (S. aureus; [4]): <10 cfu/g formulation
- Colony counts (cfu/g formulation) (S. aureus; [5]): <10 cfu/g formulation
- Colony counts (cfu/g formulation) (C. albicans; [2]): <10 cfu/g formulation
- Colony counts (cfu/g formulation) (C. albicans; [3]): <10 cfu/g formulation
- Colony counts (cfu/g formulation) (C. albicans; [4]): <10 cfu/g formulation
- Colony counts (cfu/g formulation) (C. albicans; [5]): <10 cfu/g formulation
- Colony counts (cfu/g formulation) (P. aeruginosa; [2]): <10 cfu/g formulation
- Colony counts (cfu/g formulation) (P. aeruginosa; [3]): <10 cfu/g formulation
- Colony counts (cfu/g formulation) (P. aeruginosa; [4]): <10 cfu/g formulation
- Colony counts (cfu/g formulation) (P. aeruginosa; [5]): <10 cfu/g formulation
- Colony counts (cfu/g formulation) ([1]; day 7, 1.0% in anionic emulsion, pH 5.5): <10 cfu/g formulation
- Colony counts (cfu/g formulation) ([1]; day 7, 1.0% in anionic emulsion, pH 7): <10 cfu/g formulation
- Colony counts (cfu/g formulation) ([1]; day 14, 1.0% in anionic emulsion, pH 5.5): <10 cfu/g formulation
- Colony counts (cfu/g formulation) ([1]; day 14, 1.0% in anionic emulsion, pH 7): <10 cfu/g formulation
- Colony counts (cfu/g formulation) ([1]; day 28, 1.0% in anionic emulsion, pH 5.5): <10 cfu/g formulation
- Colony counts (cfu/g formulation) ([1]; day 28, 1.0% in anionic emulsion, pH 7): <10 cfu/g formulation
